# Laboratory results: ChEMBL document CHEMBL3046649, “Fungitoxic and Phytotoxic Activities of Cinnamic Acid Esters and Amides” (2000)
# How the values were obtained:
# Athelia rolfsii [1] = test: microbe, parasite or virus in culture; format: functional; conditions: Agroathelia rolfsii, read-out: GI
# Description: Fungitoxic activity against Athelia rolfsii assessed as mycelial growth inhibition at 100 ppm after 4 to 5 days by agar dilution method
# Pythium [2] = test: microbe, parasite or virus in culture; format: functional; conditions: read-out: GI
# Description: Fungitoxic activity against Pythium sp. assessed as mycelial growth inhibition at 100 ppm after 4 to 5 days by agar dilution method
# [3] = test system: Brassica rapa subsp. chinensis; test: whole plant or invertebrate; format: functional; conditions: 72 h, read-out: GI
# Description: Phytotoxicity against Brassica rapa subsp. chinensis assessed as growth inhibition of radicle at 100 ppm treated to seeds after 3 days
# [4] = test system: Brassica rapa subsp. chinensis; test: whole plant or invertebrate; format: functional; conditions: 72 h, read-out: GI; remark: listed apart in the source
# Description: Phytotoxicity against Brassica rapa subsp. chinensis assessed as growth inhibition of hypocotyl at 100 ppm treated to seeds after 3 days
# Athelia rolfsii [5] = test: Fungitoxic activity against Athelia rolfsii assessed as mycelial growth inhibition at 10 ppm after 4 to 5 days by agar dilution method; format: functional; conditions: Agroathelia rolfsii; read-out: GI
# Pythium [6] = test: Fungitoxic activity against Pythium sp. assessed as mycelial growth inhibition at 10 ppm after 4 to 5 days by agar dilution method; conditions: read-out: GI
structure (smiles),measurement,setting,value
"CC(C)=CCCC(C)CCOC(=O)/C=C/c1ccc(Cl)cc1Cl (stereo not drawn) [3,7-DIMETHYLOCT-6-ENYL 3-(2,4-DICHLOROPHENYL)ACRYLATE]",inhibition of growth at 100 ppm,Athelia rolfsii [1],15%
same,inhibition of growth at 100 ppm,Pythium [2],0%
same,inhibition of growth at 100 ppm,[3],0%
same,inhibition of growth at 100 ppm,[4],25%
"CC(C)CNC(=O)/C=C/c1ccc(Cl)cc1Cl [3-(2,4-DICHLOROPHENYL)-N-ISOBUTYLACRYLAMIDE]",inhibition of growth at 100 ppm,Athelia rolfsii [1],38%
same,inhibition of growth at 100 ppm,Pythium [2],31%
same,inhibition of growth at 100 ppm,[3],43%
same,inhibition of growth at 100 ppm,[4],7%
"CC(C)NC(=O)/C=C/c1ccc(Cl)cc1Cl [3-(2,4-DICHLOROPHENYL)-N-ISOPROPYLACRYLAMIDE]",inhibition of growth at 100 ppm,Athelia rolfsii [1],31%
same,inhibition of growth at 100 ppm,Pythium [2],28%
same,inhibition of growth at 100 ppm,[3],30%
same,inhibition of growth at 100 ppm,[4],11%
"CCCNC(=O)/C=C/c1ccc(Cl)cc1Cl [3-(2,4-DICHLOROPHENYL)-N-PROPYLACRYLAMIDE]",inhibition of growth at 100 ppm,Athelia rolfsii [1],43%
same,inhibition of growth at 100 ppm,Pythium [2],29%
same,inhibition of growth at 100 ppm,[3],26%
same,inhibition of growth at 100 ppm,[4],18%
CCCCOC(=O)/C=C/c1ccccc1 [BUTYL CINNAMATE],inhibition of growth at 100 ppm,Athelia rolfsii [1],42%
same,inhibition of growth at 100 ppm,Pythium [2],17%
same,inhibition of growth at 100 ppm,[3],0%
same,inhibition of growth at 100 ppm,[4],5%
CC(C)OP(=O)(OC(C)C)SCc1ccccc1 [IPROBENFOS],inhibition of growth at 100 ppm,Athelia rolfsii [1],100%
same,inhibition of growth at 100 ppm,Pythium [2],89%
same,inhibition of growth at 10 ppm,Athelia rolfsii [5],69%
same,inhibition of growth at 10 ppm,Pythium [6],42%
CC(C)COC(=O)/C=C/c1ccccc1 [ISOBUTYL CINNAMATE],inhibition of growth at 100 ppm,Athelia rolfsii [1],42%
same,inhibition of growth at 100 ppm,Pythium [2],57%
same,inhibition of growth at 100 ppm,[3],0%
same,inhibition of growth at 100 ppm,[4],40%
"O=C(/C=C/c1ccccc1)NCc1ccc(Cl)cc1Cl [N-(2,4-DICHLOROBENZYL)CINNAMAMIDE]",inhibition of growth at 100 ppm,Athelia rolfsii [1],51%
same,inhibition of growth at 100 ppm,Pythium [2],41%
same,inhibition of growth at 100 ppm,[3],43%
same,inhibition of growth at 100 ppm,[4],0%
O=C(/C=C/c1ccccc1)NCc1ccccc1Cl [N-(2-CHLOROBENZYL)CINNAMAMIDE],inhibition of growth at 100 ppm,Athelia rolfsii [1],41%
same,inhibition of growth at 100 ppm,Pythium [2],23%
same,inhibition of growth at 100 ppm,[3],88%
same,inhibition of growth at 100 ppm,[4],70%
O=C(/C=C/c1ccccc1)NCc1ccc(Cl)cc1 [N-(4-CHLOROBENZYL)CINNAMAMIDE],inhibition of growth at 100 ppm,Athelia rolfsii [1],27%
same,inhibition of growth at 100 ppm,Pythium [2],33%
same,inhibition of growth at 100 ppm,[3],44%
same,inhibition of growth at 100 ppm,[4],6%
"CCCCNC(=O)/C=C/c1ccc(Cl)cc1Cl [N-BUTYL-3-(2,4-DICHLOROPHENYL)ACRYLAMIDE]",inhibition of growth at 100 ppm,Athelia rolfsii [1],16%
same,inhibition of growth at 100 ppm,Pythium [2],9%
same,inhibition of growth at 100 ppm,[3],49%
same,inhibition of growth at 100 ppm,[4],17%
CCCCCCCCCCCCNC(=O)/C=C/c1ccccc1 [N-DODECYLCINNAMAMIDE],inhibition of growth at 100 ppm,Athelia rolfsii [1],13%
same,inhibition of growth at 100 ppm,Pythium [2],21%
same,inhibition of growth at 100 ppm,[3],32%
same,inhibition of growth at 100 ppm,[4],48%
CCCCCCCCCCCCCCCCNC(=O)/C=C/c1ccccc1 [N-HEXADECYLCINNAMAMIDE],inhibition of growth at 100 ppm,Athelia rolfsii [1],0%
same,inhibition of growth at 100 ppm,Pythium [2],12%
same,inhibition of growth at 100 ppm,[3],75%
same,inhibition of growth at 100 ppm,[4],20%
Cc1ccccc1NC(=O)/C=C/c1ccccc1 [N-O-TOLYLCINNAMAMIDE],inhibition of growth at 100 ppm,Athelia rolfsii [1],49%
same,inhibition of growth at 100 ppm,Pythium [2],52%
same,inhibition of growth at 100 ppm,[3],39%
same,inhibition of growth at 10 ppm,Pythium [6],18%
same,inhibition of growth at 100 ppm,[4],9%
CCCCCCCCNC(=O)/C=C/c1ccccc1 [N-OCTYLCINNAMAMIDE],inhibition of growth at 100 ppm,Athelia rolfsii [1],46%
same,inhibition of growth at 100 ppm,Pythium [2],24%
same,inhibition of growth at 100 ppm,[3],42%
same,inhibition of growth at 100 ppm,[4],34%
Cc1ccc(NC(=O)/C=C/c2ccccc2)cc1 [N-P-TOLYLCINNAMAMIDE],inhibition of growth at 100 ppm,Athelia rolfsii [1],47%
same,inhibition of growth at 100 ppm,Pythium [2],59%
same,inhibition of growth at 100 ppm,[3],57%
same,inhibition of growth at 10 ppm,Pythium [6],35%
same,inhibition of growth at 100 ppm,[4],24%
"CCC(C)NC(=O)/C=C/c1ccc(Cl)cc1Cl (stereo not drawn) [N-SEC-BUTYL-3-(2,4-DICHLOROPHENYL)ACRYLAMIDE]",inhibition of growth at 100 ppm,Athelia rolfsii [1],31%
same,inhibition of growth at 100 ppm,Pythium [2],23%
same,inhibition of growth at 100 ppm,[3],41%
same,inhibition of growth at 100 ppm,[4],21%
"CC(C)(C)NC(=O)/C=C/c1ccc(Cl)cc1Cl [N-TERT-BUTYL-3-(2,4-DICHLOROPHENYL)ACRYLAMIDE]",inhibition of growth at 100 ppm,Athelia rolfsii [1],21%
same,inhibition of growth at 100 ppm,Pythium [2],22%
same,inhibition of growth at 100 ppm,[3],26%
same,inhibition of growth at 100 ppm,[4],11%
CC(C)(C)NC(=O)/C=C/c1ccc(Cl)cc1 [N-TERT-BUTYL-3-(4-CHLOROPHENYL)ACRYLAMIDE],inhibition of growth at 100 ppm,Athelia rolfsii [1],71%
same,inhibition of growth at 100 ppm,Pythium [2],21%
same,inhibition of growth at 10 ppm,Athelia rolfsii [5],60%
same,inhibition of growth at 100 ppm,[3],55%
same,inhibition of growth at 100 ppm,[4],29%
CC(C)c1ccc(/C=C/C(=O)NC(C)(C)C)cc1 [N-TERT-BUTYL-3-(4-ISOPROPYLPHENYL)ACRYLAMIDE],inhibition of growth at 100 ppm,Athelia rolfsii [1],31%
same,inhibition of growth at 100 ppm,Pythium [2],62%
same,inhibition of growth at 100 ppm,[3],43%
same,inhibition of growth at 10 ppm,Pythium [6],45%
same,inhibition of growth at 100 ppm,[4],7%
CCCOC/C(=N\c1ccc(Cl)cc1C(F)(F)F)n1ccnc1 [TRIFLUMIZOLE],inhibition of growth at 100 ppm,Athelia rolfsii [1],100%
same,inhibition of growth at 100 ppm,Pythium [2],94%
same,inhibition of growth at 10 ppm,Athelia rolfsii [5],64%
same,inhibition of growth at 10 ppm,Pythium [6],71%
